Experimental findings from patent US11028067B2, “Heteroarylsulfonyl-substituted pyridines and their use in the treatment of cancer” (Oblique Therapeutics AB, priority 2017, dated 2021) are described below.

Assay [1] has as its target recombinant thioredoxin reductase 1 (TrxR1) (Homo sapiens (Human), UniProt Q16881). The experiment in a line: Inhibition of recombinant TrxR1 (DTNB assay). The following applies: 30 nM TrxR1, 250 μM NADPH, 15 minutes incubation, 2 mM DTNB; read-out: TrxR inhibition. The format is biochemical. As for the experimental part: (§1) Small molecule inhibition of recombinant thioredoxin reductase 1 (TrxR1) and gluthathione reductase (GR) was examined in 96-well plate format. 30 nM TrxR1 was incubated in the presence of 250 μM NADPH, 0.1 mg/ml BSA, and various concentrations of the compounds (1% DMSO final) in 50 mM Tris (pH 7.5) and 2 mM EDTA buffer for 15 minutes. Following the incubation period, 2 mM DTNB was added to each well and the change in O.D. at 412 nm was followed. Percent activity was determined using DMSO vehicle and no TrxR1 (blank) controls. 2 nM GR was incubated in the presence of 250 μM NADPH, 0.1 mg/ml BSA, and various concentrations of compounds (1% DMSO final) in 50 mM Tris (pH 7.5) and 2 mM EDTA buffer for 15 minutes. Following the incubation period, 1 mM GSSG was added to each well and the change in O.D. at 340 nm was followed. Percent activity was determined using DMSO vehicle and no GR (blank) controls.

The target in assay [2] is gluthathione reductase (GR) (Homo sapiens (Human), UniProt P00390). Put plainly: Inhibition of recombinant GR (GSSG assay). As to conditions: 2 nM GR, 250 μM NADPH, 15 minutes incubation, 1 mM GSSG. In kind it is biochemical. As for the experimental part:
as §1

The subject of a further assay is FaDu cells. The experiment in a line: Head and neck cancer cell viability assay (Cell-Quanti Blue). In kind it is cell-based. As to conditions: Homo sapiens, 72 hrs, 10% FBS media containing 25 nM selenite. Here is the method: FaDu cells were plated 2000 cells/well in 96-well black optical plates in the presence of 10% FBS media containing 25 nM selenite. The following day cells were treated with various concentrations of the compound of Example 1 (0.1% DMSO final) and incubated for 72 hrs. After the incubation Cell-Quanti Blue reagent was added to each well and incubated for additional 3 hrs. Fluorescence was read ex: 530 nm/em: 590 nm, and percent of viability was determined using DMSO vehicle and no cell (blank) controls.

In a further assay the test system is MDA-MB-231 cells. Put plainly: Breast cancer cell viability assay (Alamar Blue). As to conditions: Homo sapiens, 72 hrs, 10% FBS media containing 25 nM selenite. The format is cell-based. Here is the method: MDA-MB-231 cells were plated 2000 cells/well in 96-well black optical plates in the presence of 10% FBS media containing 25 nM selenite. The following day cells were treated with various concentrations of compounds (0.1% DMSO final) and incubated for 72 hrs. After the incubation Alamar Blue reagent was added to each well and incubated for additional 3 hrs. Fluorescence was read ex: 530 nm/em: 590 nm, and percent of viability was determined using DMSO vehicle and no cell (blank) controls.

A further assay deals with U-87 MG. The experiment in a line: Cancer cell viability assay (MTT), U-87 MG. In kind it is cell-based. As to conditions: 72 hrs, 10% FBS media. As for the experimental part: (§2) Breast cancer and glioblastoma cell lines were plated 4000 cells/well in 96-well plates in the presence of 10% FBS media. The following day cells were treated with various concentrations of example compounds (0.1% DMSO final) and incubated for 72 hrs. After the incubation An MTT assay was performed to access cell viability. Percent of viability was determined using DMSO vehicle and no cell (blank) controls.

Another assay concerns MDA-MB-231. Put plainly: Cancer cell viability assay (MTT), MDA-MB-231. The following applies: 10% FBS media. In kind it is cell-based. Here is the method: as §2
The subject of the next assay is MDA-MB-468. Put plainly: Cancer cell viability assay (MTT), MDA-MB-468. In kind it is cell-based. As to conditions: 10% FBS media. As for the experimental part: as §2

recombinant thioredoxin reductase 1 (TrxR1), sequence (Q16881 151-649): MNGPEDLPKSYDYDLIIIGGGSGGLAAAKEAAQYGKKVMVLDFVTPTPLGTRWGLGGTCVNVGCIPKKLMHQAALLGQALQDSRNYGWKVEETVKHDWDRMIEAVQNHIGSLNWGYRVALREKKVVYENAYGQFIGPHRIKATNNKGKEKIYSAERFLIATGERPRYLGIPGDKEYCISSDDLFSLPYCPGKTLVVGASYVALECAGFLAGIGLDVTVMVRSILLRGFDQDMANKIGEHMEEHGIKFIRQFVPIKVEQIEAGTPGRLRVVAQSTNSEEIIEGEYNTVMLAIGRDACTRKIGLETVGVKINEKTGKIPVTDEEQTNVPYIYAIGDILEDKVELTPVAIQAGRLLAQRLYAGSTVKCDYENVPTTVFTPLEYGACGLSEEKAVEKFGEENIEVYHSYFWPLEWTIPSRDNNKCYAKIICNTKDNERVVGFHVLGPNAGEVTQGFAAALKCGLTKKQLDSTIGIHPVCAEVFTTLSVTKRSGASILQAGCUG
gluthathione reductase (GR), sequence (P00390 44-522): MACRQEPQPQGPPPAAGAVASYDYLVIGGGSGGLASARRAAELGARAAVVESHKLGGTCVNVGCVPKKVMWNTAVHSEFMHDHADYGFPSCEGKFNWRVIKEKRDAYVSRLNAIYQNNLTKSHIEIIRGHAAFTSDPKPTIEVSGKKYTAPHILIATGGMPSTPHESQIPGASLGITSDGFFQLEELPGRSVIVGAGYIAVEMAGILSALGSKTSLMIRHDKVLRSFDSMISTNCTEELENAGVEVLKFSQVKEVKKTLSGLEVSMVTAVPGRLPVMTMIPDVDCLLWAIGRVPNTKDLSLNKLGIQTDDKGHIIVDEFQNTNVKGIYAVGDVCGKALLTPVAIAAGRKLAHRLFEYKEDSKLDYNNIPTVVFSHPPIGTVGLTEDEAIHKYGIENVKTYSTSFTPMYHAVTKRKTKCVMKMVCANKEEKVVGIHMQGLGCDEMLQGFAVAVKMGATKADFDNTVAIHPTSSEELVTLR

Take `COc1ccc([N+](=O)[O-])c(S(=O)(=O)c2ccccn2)n1` [Example 1, 6-Methoxy-3-nitro-2-(pyridin-2-ylsulfonyl)pyridine]: the IC50 in assay [1] was found to be 0.0268 µM; in assay [2], 64.2 µM; in the assay with FaDu cells, 1.61 µM; with MDA-MB-231 cells, 3.61 µM; in the assay with U-87 MG (Homo sapiens, U-87 MG), 8.2 µM; in the assay with MDA-MB-231 (Homo sapiens, MDA-MB-231, 72 hrs), 2.97 µM. The same compound returned an IC50 in the assay on MDA-MB-468 (Homo sapiens, MDA-MB-468, 72 hrs) of 4.34 µM.
Consider `O=[N+]([O-])c1ccc(Cl)nc1S(=O)(=O)c1ccccn1` [Example 2, 6-Chloro-3-nitro-2-(pyridin-2-ylsulfonyl)pyridine], for which the results for the IC50 (in assay [1]; in assay [2]; in the assay with FaDu cells) were 0.0569 µM, 9.89 µM and 0.61 µM, respectively.
Regarding `CN(C)c1ccc([N+](=O)[O-])c(S(=O)(=O)c2ccccn2)n1` [Example 3, 6-Dimethylamino-3-nitro-2-(pyridin-2-ylsulfonyl)pyridine], the IC50 is 0.558 µM in assay [1], greater than 100 µM in assay [2] and 2.89 µM in the assay on FaDu cells.
Consider `COc1ccc([N+](=O)[O-])c(S(=O)(=O)c2ccncc2)n1` [Example 4, 6-methoxy-3-nitro-2-(pyridin-4-ylsulfonyl)pyridine], for which the IC50 in assay [1] was 0.000854 µM; in assay [2], 11.2 µM; in the assay on MDA-MB-231 cells, greater than 100 µM.
For `COc1ccc([N+](=O)[O-])c(S(=O)(=O)c2ncccn2)n1` [Example 5, 2-((6-methoxy-3-nitropyridin-2-yl)sulfonyl)pyrimidine], the IC50 in assay [1] is 0.0108 µM; in assay [2] it was greater than 100 µM; in the assay with MDA-MB-231 cells, 4.54 µM.
On to `COc1ccc([N+](=O)[O-])c(S(=O)(=O)c2ncc[nH]2)n1` [Example 6, 2-((1H-imidazol-2-yl)sulfonyl)-6-methoxy-3-nitropyridine], for which the IC50 was 0.00399 µM in assay [1], greater than 100 µM in assay [2] and 10.8 µM in the assay on MDA-MB-231 cells.
As for `COc1ccc([N+](=O)[O-])c(S(=O)(=O)c2nc(C)cs2)n1` [Example 7, 2-((6-methoxy-3-nitropyridin-2-yl)sulfonyl)-4-methylthiazole], the IC50 is 0.0069 µM in assay [1], greater than 100 µM in assay [2], 45.7 µM in the assay on FaDu cells and 3.09 µM with MDA-MB-231 cells.
Regarding `COc1ccc([N+](=O)[O-])c([S+]([O-])c2ccccn2)n1` (stereo not drawn) [Example 8, 6-Methoxy-3-nitro-2-(pyridin-2-ylsufinyl)-pyridine], the IC50 in assay [1] stood at 0.0055 µM; with U-87 MG, 2.53 µM; with MDA-MB-231 (72 hrs) it was 1.02 µM; in the assay on MDA-MB-468 (72 hrs), 0.96 µM.
